Measurements reported in patent publication US20060106106A1, “Beta-hydroxyphenylalkylamines and their use for treating glaucoma” (priority 2002, published 2006).
Counter-ions that a name gives are not always drawn.

Columns and labels:
5-HT2A [1] = molecular target: T1, 5-HT2A (Rattus norvegicus, UniProt P14842); assay: 5-HT2 Functional Assay: [Ca2+]i Mobilization (FLIPR) in A7r5 cells; assay type: cell-based; conditions: for Emax: A7r5 cells, FLIPR, percentage of maximum 5-HT-induced response, read-out: 5-HT2A % Emax (Ca+2 Assay)
T1 construct: [^3H]myo-inositol-labeled A7r5 rat vascular smooth muscle cells; endogenous in cells; host or cells: A7r5 rat vascular smooth muscle cells
T1 sequence (P14842 whole entry): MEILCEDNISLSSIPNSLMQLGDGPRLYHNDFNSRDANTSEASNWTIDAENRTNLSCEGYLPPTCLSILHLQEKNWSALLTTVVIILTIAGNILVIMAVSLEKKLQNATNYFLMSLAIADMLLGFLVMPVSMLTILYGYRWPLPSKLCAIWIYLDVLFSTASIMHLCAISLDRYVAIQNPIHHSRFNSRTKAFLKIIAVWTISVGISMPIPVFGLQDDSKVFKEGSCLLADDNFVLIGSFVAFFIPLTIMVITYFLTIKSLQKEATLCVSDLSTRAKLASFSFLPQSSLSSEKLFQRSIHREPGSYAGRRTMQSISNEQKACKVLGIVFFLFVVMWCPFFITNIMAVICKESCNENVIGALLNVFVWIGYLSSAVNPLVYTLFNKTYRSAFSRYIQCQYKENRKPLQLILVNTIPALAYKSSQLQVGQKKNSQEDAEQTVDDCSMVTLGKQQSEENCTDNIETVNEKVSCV
Protocol: 5-HT2 Functional Assay: [Ca^2+]i Mobilization
The receptor-mediated mobilization on intracellular calcium ([Ca^2+]i) was studied using the Fluorescence Imaging Plate Reader (FLIPR) instrument. Rat vascular smooth muscle cells, A7r5, were grown in a normal media of DMEM/10% FBS and 10 μg/mL gentamycin. Confluent cell monolayers were trypsinized, pelleted, and re-suspended in normal media. Cells were seeded in a 50 μL volume at a density of 20,000 cells/well in a black wall, 96-well tissue culture plate and grown for 2 days.
On the day of the experiment, one vial of FLIPR Calcium Assay Kit dye was re-suspended in 50 mL of a FLIPR buffer consisting of Hank's Balanced Salt Solution (HBSS), 20 mM HEPES, and 2.5 mM probenecid, pH 7.4. Cells were loaded with the calcium-sensitive dye by addition of an equal volume (50 μL) to each well of the 96-well plate and incubated with dye for 1 h at 23° C.
Compounds were diluted 1:50 in 20% DMSO/20% Ethanol. For “hit” screening, compounds were further diluted 1:10 in FLIPR buffer and tested at a final concentration of 10 μM.
The compound plate and cell plate were placed in the FLIPR instrument. At the beginning of an experimental run, a signal test was performed to check the basal fluorescence signal from the dye-loaded cells and the uniformity of the signal across the plate. The basal fluorescence was adjusted between 8000-12000 counts by modifying the exposure time, the camera F-stop, or the laser power. Instrument settings for a typical assay were the following: laser power 0.3-0.6 W, camera F-stop F/2, and exposure time 0.4 sec. An aliquot (25 μL) of the test compound was added to the existing 100 μL dye-loaded cells at a dispensing speed of 50 μL/sec. Fluorescence data were collected in real-time at 1.0 sec intervals for the first 60 secs and at 6.0 sec intervals for an additional 120 secs. Responses were measured as peak fluorescence intensity minus basal and where appropriate were expressed as a percentage of a maximum 5-HT-induced response.

5-HT2A [2] = molecular target: T1, 5-HT2A; assay: 5-HT2 Functional Assay: Phosphoinositide (PI) Turnover Assay in A7r5 cells; assay type: cell-based; conditions: for Emax: A7r5 cells, relative to 5-HT (set at 100%)
Protocol: 5-HT2 Functional Assay: Phosphoinositide (PI) Turnover Assay
The relative agonist activity of serotonergic compounds at the 5-HT2 receptor can be determined in vitro using the ability of the compounds to stimulate the production of [^3H]inositol phosphates in [^3H]myo-inositol-labeled A7r5 rat vascular smooth muscle cells by their ability to activate the enzyme phospholipase C. These cells are grown in culture plates, maintained in a humidified atmosphere of 5% CO2 and 95% air and fed semi-weekly with Dulbecco's modified Eagle medium (DMEM) containing 4.5 g/L glucose and supplemented with 2 mM glutamine, 10 μg/ml gentamicin, and 10% fetal bovine serum. For the purpose of conducting the phosphoinositide (PI) turnover experiments, the A7r5 cells are cultured in 24-well plates as previously [J. Pharmacol. Expt. Ther. 286, 411 (1998)]. Confluent cells are exposed for 24-30 hrs to 1.5 μCi [^3H]-myo-inositol (18.3 Ci/mmol) in 0.5 ml of serum-free medium. Cells are then rinsed once with DMEM/F-12 containing 10 mM LiCl prior to incubation with the test agent (or solvent as the control) in 1.0 mL of the same medium for 1 hr at 37° C., after which the medium is aspirated and 1 ml of cold 0.1 M formic acid added to stop the reaction. The chromatographic separation of [^3H]-inositol phosphates ([^3H]-IPs) on an AG-1-X8 column is performed as previously described [J. Pharmacol. Expt. Ther. 286, 411 (1998)] with sequential washes with H2O and 50 mM ammonium formate, followed by elution of the total [^3H]-IPs fraction with 1.2 M ammonium formate containing 0.1 M formic acid. The eluate (4 mL) is collected, mixed with 15 ml scintillation fluid, and the total [^3H]-IPs determined by scintillation counting on a beta-counter. Concentration-response data are analyzed by the sigmoidal fit function of the Origin Scientific Graphics software (Microcal Software, Northampton, Mass.) to determine agonist potency (EC50 value) and efficacy (Emax). Serotonin (5-HT) is used as a positive control (standard) agonist compound and the efficacy of test compounds is compared to that of 5-HT (set at 100%).

Row | SMILES | melting point | Emax (5-HT2A [1]) | Emax (5-HT2A [2]) | EC50 (5-HT2A [1]) | EC50 (5-HT2A [2])
1 | COc1cc([C@H](O)[C@@H](C)N)c(OC)cc1Br (as salt: hydrochloride) [Compound 8, (+)-erythro-(1S,2R)-1-Hydroxy-1-(4-bromo-2,5-dimethoxyphenyl)-2-aminopropane Hydrochloride] | 194 to 196 °C | – | – | – | –
2 | COc1cc([C@@H](O)[C@@H](C)N)c(OC)cc1Br (as salt: hydrochloride) [Compound 11, (−)-threo-(1R,2R)-1-Hydroxy-1-(4-bromo-2,5-dimethoxyphenyl)-2-aminopropane Hydrochloride] | 214 to 215 °C | – | – | – | –
3 | CC[C@H](N)[C@H](O)c1cc(OC)c(Br)cc1OC (as salt: oxalate) [Compound 7, (−)-erythro-(1R,2S)-1-Hydroxy-1-(4-bromo-2,5-dimethoxyphenyl)-2-aminobutane Oxalate] | 203 to 205 °C | – | – | – | –
4 | COc1cc([C@@H](OC)[C@H](C)N)c(OC)cc1Br (as salt: oxalate) [Compound 12, (−)-erythro-(1R,2S)-1-Methoxy-1-(4-bromo-2,5-dimethoxyphenyl)-2-aminopropane Oxalate] | 186 to 188 °C | – | – | – | –
5 | COc1cc(C(O)CN)c(OC)cc1CCCc1ccccc1 (racemic) (as salt: hydrochloride) [Compound 5, (±)1-Hydroxy-1-[4-(3-phenylpropyl)-2,5-dimethoxyphenyl]-2-aminoethane Hydrochloride] | 174 to 176 °C | – | – | – | –
6 | COc1cc(C(O)CN)c(OC)cc1CCCc1ccccc1 (racemic) [Compound 5, (±)1-Hydroxy-1-[4-(3-phenylpropyl)-2,5-dimethoxyphenyl]-2-aminoethane Hydrochloride, reference compound] | – | 3.1% | – | – | –
7 | COc1cc(C(O)C(C)N)c(OC)cc1Br (single isomer, unassigned; (+)) (as salt: hydrochloride) [Compound 10] | 213 to 214 °C | – | – | – | –
8 | COc1cc(C(O)C(C)N)c(OC)cc1Br (single isomer, unassigned; (+)) [Compound 10, Hydrochloride] | – | 16% | 47% | – | –
9 | COc1cc(C(OC)C(C)N)c(OC)cc1Br (single isomer, unassigned; (+)) [Compound 15] | – | 31% | – | 1.41 µM | –
10 | COc1ccc(OC)c(C(O)C(C)N)c1 (stereo not shown) [Compound 1, reference compound] | – | 9% | – | – | –
11 | COc1cc(C(O)CN)c(OC)cc1Br (stereo not shown) [Compound 6, reference compound] | – | 7.8% | – | – | –
12 | CC[C@H](N)[C@H](O)c1cc(OC)c(Br)cc1OC [Compound 7, (−)-erythro-(1R,2S)-1-Hydroxy-1-(4-bromo-2,5-dimethoxyphenyl)-2-aminobutane Oxalate, reference compound] | – | 4.8% | – | – | –
13 | COc1cc([C@H](O)[C@@H](C)N)c(OC)cc1Br [Compound 8, (+)-erythro-(1S,2R)-1-Hydroxy-1-(4-bromo-2,5-dimethoxyphenyl)-2-aminopropane Hydrochloride] | – | 20% | 57% | – | 8 µM
14 | COc1cc([C@@H](O)[C@H](C)N)c(OC)cc1Br [Compound 9, (−)-erythro-(1R,2S)-1-Hydroxy-1-(4-bromo-2,5-dimethoxyphenyl)-2-aminopropane Hydro-chloride] | – | 22% | 68% | 0.084 µM | 1.18 µM
15 | COc1cc([C@@H](O)[C@@H](C)N)c(OC)cc1Br [Compound 11, (−)-threo-(1R,2R)-1-Hydroxy-1-(4-bromo-2,5-dimethoxyphenyl)-2-aminopropane Hydrochloride] | – | 54% | 102% | 0.0969 µM | 1.13 µM
16 | COc1cc([C@@H](OC)[C@H](C)N)c(OC)cc1Br [Compound 12, (−)-erythro-(1R,2S)-1-Methoxy-1-(4-bromo-2,5-dimethoxyphenyl)-2-aminopropane Oxalate] | – | 54% | 100% | 1.33 µM | 1.08 µM
17 | COc1cc([C@H](OC)[C@@H](C)N)c(OC)cc1Br [Compound 13, (+)-erythro-(1S,2R)-1-Methoxy-1-(4-bromo-2,5-dimethoxyphenyl)-2-aminopropane Oxalate] | – | 49% | 117% | 5.04 µM | 4.61 µM
18 | COc1cc([C@@H](OC)[C@@H](C)N)c(OC)cc1Br [Compound 14, (−)-thero-(1R,2R)-1-Methoxy-1-(4-bromo-2,5-dimethoxyphenyl)-2-aminopropane Oxalate] | – | 93% | 111% | 0.126 µM | 0.0424 µM
